Drawing on ChEMBL document CHEMBL5465560, “Selectivity Literature for EUbOPEN Chemogenomic Library” (2024), this text covers % of control, % of inhibition and dTM for 5 compounds.

For test [1], the target named is T1, Phosphatidylinositol 5-phosphate 4-kinase type-2 beta (Homo sapiens) (UniProt P78356).
T1 sequence (whole entry): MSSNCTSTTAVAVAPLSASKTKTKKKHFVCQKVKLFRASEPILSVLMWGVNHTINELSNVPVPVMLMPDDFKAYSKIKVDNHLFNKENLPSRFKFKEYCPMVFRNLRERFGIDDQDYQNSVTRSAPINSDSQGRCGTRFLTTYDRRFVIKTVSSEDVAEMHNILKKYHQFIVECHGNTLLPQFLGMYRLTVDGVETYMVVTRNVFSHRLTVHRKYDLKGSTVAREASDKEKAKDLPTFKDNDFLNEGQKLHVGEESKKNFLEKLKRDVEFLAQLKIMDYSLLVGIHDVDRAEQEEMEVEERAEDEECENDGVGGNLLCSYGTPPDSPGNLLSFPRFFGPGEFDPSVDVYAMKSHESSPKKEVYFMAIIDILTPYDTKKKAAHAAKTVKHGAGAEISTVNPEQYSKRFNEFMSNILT
Put plainly: Selectivity interaction (KinomeScan (DiscoverX)) EUB0000666a PIP4K2B. Particulars: at 10 µM.

Test [2] has as its target T2, Serine/threonine-protein kinase D3 (Homo sapiens) (UniProt O94806).
T2 sequence (whole entry): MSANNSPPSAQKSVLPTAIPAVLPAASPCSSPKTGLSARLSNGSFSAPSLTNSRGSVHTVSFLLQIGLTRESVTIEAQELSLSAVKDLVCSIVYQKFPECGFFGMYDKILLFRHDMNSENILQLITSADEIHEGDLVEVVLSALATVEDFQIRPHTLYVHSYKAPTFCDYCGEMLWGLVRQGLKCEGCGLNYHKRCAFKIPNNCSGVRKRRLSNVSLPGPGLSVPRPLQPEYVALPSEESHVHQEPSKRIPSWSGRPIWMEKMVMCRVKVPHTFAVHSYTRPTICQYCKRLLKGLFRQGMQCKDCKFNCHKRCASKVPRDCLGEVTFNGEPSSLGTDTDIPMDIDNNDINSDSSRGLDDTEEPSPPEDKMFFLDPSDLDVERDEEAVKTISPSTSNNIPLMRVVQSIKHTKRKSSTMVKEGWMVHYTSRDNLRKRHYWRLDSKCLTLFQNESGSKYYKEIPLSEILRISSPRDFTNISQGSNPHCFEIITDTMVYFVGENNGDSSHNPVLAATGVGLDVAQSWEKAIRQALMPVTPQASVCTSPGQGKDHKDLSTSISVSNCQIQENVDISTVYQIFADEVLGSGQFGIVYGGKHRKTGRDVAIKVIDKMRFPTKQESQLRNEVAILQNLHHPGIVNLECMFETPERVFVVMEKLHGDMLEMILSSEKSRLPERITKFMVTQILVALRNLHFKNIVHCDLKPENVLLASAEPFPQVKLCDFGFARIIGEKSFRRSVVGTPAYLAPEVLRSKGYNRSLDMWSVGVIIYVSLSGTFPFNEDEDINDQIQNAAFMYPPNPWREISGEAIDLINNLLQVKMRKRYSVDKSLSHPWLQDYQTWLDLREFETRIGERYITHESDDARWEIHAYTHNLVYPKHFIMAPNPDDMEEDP
As to the kind of experiment: Selectivity interaction (Kinase screening (Nanosyn)) EUB0000604a PRKD3.

The target in test [3] is Casein kinase I isoform delta (Homo sapiens, UniProt P48730). Put plainly: Selectivity interaction (KinomeScan (DiscoverX)) EUB0000655a CSNK1D. Particulars: at 10 µM.
Casein kinase I isoform delta, sequence (P48730 whole entry, looked up, canonical isoform): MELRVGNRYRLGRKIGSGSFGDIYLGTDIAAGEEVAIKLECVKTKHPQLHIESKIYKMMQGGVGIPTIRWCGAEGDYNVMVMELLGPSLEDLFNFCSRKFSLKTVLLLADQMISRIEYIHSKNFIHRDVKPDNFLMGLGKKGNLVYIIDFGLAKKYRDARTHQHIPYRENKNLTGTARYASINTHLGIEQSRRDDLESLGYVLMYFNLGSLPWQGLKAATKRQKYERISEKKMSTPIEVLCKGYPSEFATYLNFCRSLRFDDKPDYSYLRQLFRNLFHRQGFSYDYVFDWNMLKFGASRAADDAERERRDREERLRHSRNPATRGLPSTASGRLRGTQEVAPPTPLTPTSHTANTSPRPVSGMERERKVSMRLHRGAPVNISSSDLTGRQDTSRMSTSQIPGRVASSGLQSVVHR
In test [4] the target is SWI/SNF-related matrix-associated actin-dependent regulator of chromatin subfamily A member 2 (Homo sapiens, UniProt P51531). Put plainly: Selectivity interaction (Human bromodomain panel (DSF assay)) EUB0000233b SMARCA2. (DSF heats the sample and reads unfolding from a dye or from intrinsic fluorescence.)
SWI/SNF-related matrix-associated actin-dependent regulator of chromatin subfamily A member 2, sequence (P51531 whole entry): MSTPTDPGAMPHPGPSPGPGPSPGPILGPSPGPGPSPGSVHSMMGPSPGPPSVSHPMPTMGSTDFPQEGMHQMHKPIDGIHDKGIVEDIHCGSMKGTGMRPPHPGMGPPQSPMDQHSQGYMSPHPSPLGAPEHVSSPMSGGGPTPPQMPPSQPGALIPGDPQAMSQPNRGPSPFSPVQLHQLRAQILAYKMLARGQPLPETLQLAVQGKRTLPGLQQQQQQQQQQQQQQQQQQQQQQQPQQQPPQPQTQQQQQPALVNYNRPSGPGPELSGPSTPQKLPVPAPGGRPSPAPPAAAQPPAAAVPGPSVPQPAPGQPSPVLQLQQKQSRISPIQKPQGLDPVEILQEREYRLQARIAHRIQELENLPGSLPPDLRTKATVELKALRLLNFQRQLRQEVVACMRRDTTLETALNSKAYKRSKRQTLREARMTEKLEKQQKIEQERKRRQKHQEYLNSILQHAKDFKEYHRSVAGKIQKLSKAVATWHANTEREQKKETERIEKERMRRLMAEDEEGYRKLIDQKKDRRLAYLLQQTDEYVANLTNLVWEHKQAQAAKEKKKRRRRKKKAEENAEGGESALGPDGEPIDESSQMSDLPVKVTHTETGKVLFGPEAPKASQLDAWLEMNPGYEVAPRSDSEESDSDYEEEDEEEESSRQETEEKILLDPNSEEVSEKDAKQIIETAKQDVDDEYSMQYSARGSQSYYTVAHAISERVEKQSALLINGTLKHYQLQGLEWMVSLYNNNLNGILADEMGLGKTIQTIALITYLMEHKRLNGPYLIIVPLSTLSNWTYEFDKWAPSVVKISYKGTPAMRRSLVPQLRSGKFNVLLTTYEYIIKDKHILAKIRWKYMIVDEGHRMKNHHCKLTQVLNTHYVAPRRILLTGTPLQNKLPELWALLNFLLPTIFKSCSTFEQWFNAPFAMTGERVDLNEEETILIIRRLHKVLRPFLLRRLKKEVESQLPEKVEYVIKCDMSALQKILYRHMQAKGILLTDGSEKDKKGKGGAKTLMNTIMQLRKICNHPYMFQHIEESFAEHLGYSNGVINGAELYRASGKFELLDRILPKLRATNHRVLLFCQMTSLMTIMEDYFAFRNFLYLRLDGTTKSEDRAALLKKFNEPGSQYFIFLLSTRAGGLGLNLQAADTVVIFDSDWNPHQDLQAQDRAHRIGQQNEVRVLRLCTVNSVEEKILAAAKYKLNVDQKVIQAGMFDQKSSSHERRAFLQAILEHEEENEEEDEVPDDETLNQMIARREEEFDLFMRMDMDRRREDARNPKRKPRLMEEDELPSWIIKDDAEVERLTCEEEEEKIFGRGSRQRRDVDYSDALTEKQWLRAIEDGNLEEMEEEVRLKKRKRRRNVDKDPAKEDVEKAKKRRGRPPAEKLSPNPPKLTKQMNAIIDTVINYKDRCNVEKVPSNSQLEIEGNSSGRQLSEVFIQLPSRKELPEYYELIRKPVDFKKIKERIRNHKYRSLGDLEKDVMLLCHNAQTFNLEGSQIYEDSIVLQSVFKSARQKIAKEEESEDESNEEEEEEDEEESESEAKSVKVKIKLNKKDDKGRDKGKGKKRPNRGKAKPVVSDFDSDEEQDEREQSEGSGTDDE
Test [5] deals with T3, Myosin light chain kinase family member 4 (Homo sapiens) (UniProt Q86YV6).
T3 sequence (whole entry): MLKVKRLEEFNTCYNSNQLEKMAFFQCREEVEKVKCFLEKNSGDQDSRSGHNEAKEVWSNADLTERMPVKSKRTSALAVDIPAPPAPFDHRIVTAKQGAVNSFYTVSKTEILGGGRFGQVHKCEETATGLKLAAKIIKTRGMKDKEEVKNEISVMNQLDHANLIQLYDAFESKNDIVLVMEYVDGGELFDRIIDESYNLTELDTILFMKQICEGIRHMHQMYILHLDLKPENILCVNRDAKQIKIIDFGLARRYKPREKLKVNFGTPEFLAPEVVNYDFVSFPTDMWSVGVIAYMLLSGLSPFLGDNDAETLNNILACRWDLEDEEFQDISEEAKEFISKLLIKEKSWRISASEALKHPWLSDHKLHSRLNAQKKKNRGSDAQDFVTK
As to the kind of experiment: Selectivity interaction (KinomeScan (DiscoverX)) EUB0001079a MYLK4. Particulars: at 1 µM.

Test [6] concerns the target Ribosomal protein S6 kinase alpha-5 (Homo sapiens) (UniProt O75582). As to the kind of experiment: Selectivity interaction (KinomeScan (DiscoverX)) EUB0001079a RPS6KA5. Particulars: at 1 µM.

Ribosomal protein S6 kinase alpha-5 (Homo sapiens), sequence (O75582 whole entry, looked up): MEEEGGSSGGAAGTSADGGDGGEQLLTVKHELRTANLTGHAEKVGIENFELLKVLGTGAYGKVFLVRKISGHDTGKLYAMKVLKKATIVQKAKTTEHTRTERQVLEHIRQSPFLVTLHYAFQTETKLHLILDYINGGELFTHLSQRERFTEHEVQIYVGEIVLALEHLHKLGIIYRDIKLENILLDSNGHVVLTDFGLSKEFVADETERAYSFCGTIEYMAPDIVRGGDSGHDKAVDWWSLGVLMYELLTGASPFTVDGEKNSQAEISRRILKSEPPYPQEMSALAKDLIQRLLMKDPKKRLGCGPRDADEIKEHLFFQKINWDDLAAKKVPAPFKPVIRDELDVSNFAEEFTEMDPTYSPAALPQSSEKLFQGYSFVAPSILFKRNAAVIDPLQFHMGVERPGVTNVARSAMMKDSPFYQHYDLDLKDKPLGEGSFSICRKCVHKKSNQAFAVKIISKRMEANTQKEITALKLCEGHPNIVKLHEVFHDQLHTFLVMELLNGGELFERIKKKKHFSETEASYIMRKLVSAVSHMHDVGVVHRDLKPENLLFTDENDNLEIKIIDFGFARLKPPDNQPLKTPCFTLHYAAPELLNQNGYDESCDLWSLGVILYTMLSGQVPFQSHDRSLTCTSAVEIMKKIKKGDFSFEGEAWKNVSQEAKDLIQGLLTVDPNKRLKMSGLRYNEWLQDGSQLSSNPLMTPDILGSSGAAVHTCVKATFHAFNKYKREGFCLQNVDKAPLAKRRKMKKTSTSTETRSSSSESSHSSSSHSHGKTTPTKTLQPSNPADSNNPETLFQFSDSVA

In test [1], `O=C(NOC[C@H](O)CO)c1ccc(F)c(F)c1Nc1ccc(I)cc1F` gave a % of control of 100%.

The compound `Cc1cnc(Nc2ccc(F)cc2Cl)nc1-c1c[nH]c(C(=O)N[C@H](CO)c2cccc(Cl)c2)c1` returned a % of inhibition in test [2] of 21%.

For `CN(C)CCOc1ccc(-c2nc(-c3ccncc3)c(-c3ccc4c(c3)CC/C4=N\O)[nH]2)cc1`, in test [3], the % of control was determined as 4%.

In test [4], `CN(C)CCCOc1ccc(-c2cc(NCCCn3cccn3)nc(S(C)(=O)=O)n2)cc1` yielded a dTM below 2 K.

As for `Nc1cnc(N2CCc3cc(S(=O)(=O)Nc4c(F)cc(Cl)cc4F)cc(N4CCCC4=O)c32)nc1` [TP-020n], the % of control was found to be 100% in test [5] and 95% in test [6].
